# Values of other authors as cited in publication PMC8687831, “α-Amylase Inhibitory Activity of Catunaregam spinosa (Thunb.) Tirveng.: In Vitro and In Silico Studies” (BioMed Research International, 2021).
# Test system: streptozotocin-induced diabetic rats
# Design: method as in PMID 21143769
structure (smiles),measurement,value
"CC[C@H](CC[C@@H](C)[C@H]1CC[C@H]2[C@@H]3CC=C4C[C@@H](O)CC[C@]4(C)[C@H]3CC[C@]12C)C(C)C [β-Sitosterol, β-sitosterol]",effective to lower the blood glucose level,78-100%
